System: participants with Raynaud's Phenomenon secondary mostly to systemic sclerosis (SSc-RP)
Experiment: Frequency of weekly symptomatic RP attacks (patient diary), Phase 2a study Part A
Type: in vivo, human
Procedure: A randomized, placebo-controlled phase 2a study was performed and is in progress to assess the safety and efficacy of cilnidipine (10 mg and 20 mg) alone and in combination with 5 mg tadalafil, in participants with diagnosis of scleroderma and/or secondary Raynaud's disease.
The relevant metrics measured by this tool daily are: • Study medication • SSc-RP symptoms (Reporting an attack including duration of attack) • Severity of the attack considering all symptoms of the attack e.g., tingling, numbness, pain, color changes (VAS 0-10 cm scale) • Participant's location at the time of the attack (inside home/outside home) • Selecting symptoms experienced during the attack (tingling, numbness, pain, color changes, other) • Pain rating during the attack (11-point Likert scale) • The RCS based on how much difficulty participants had with Raynaud's today, how many attacks the participant had, and how long they lasted. Participants will also be asked to consider how much pain, numbness, or other symptoms the Raynaud's caused in fingers (including painful sores), and how much the Raynaud's alone affected the use of hands today (VAS 0-10 cm scale).
Percent change from baseline evaluation for frequency of weekly RP attacks were or will be used as the primary efficacy variable. The sponsor-developed participant-informed diary will be used to record data. Frequency of weekly RP attacks is defined as the total number of RP attacks divided by the number of days with available diary data within the last 7 days of each dosing period then multiplied by 7. Total number of RP attacks during the last 7 days of screening period divided by the number of days with available data then multiplied by 7 will be used as baseline for the analysis of all periods. The variable will be calculated as follows:
Percentage change={(weekly RP attacks for the last 7 days of each dosing period−Baseline weekly RP attacks)/Baseline weekly RP attacks}*100%.
Absolute change=weekly RP attacks for the last 7 days of each dosing period−Baseline weekly RP attacks
Percent change from baseline evaluation for frequency of weekly RP attacks was and will be the primary efficacy endpoint. Frequency of weekly RP attacks is defined as the total number of RP attacks divided by the number of days with available diary data within the last 7 days of each dosing period then multiplied by 7. Total number of RP attacks during the last 7 days of screening period divided by the number of days with available data then multiplied by 7 will be used as baseline for the analysis of all periods.
The following data was actually obtained in accordance with the protocol and plan delineated in Examples 1 and 2. The accompanying data involved 11 patients out of the planned 76 patient study. The study was done in patients with scleroderma (systemic sclerosis) who had relatively frequent Raynaud symptoms as they needed to average at least one attack per day during a screening period of up to two weeks. In this first phase of this double-blind placebo-controlled, prospective randomized study, patients were treated in parallel and after meeting study criteria were randomized to receive either placebo, cilnidipine 10 mg daily, cilnidipine 20 mg daily, tadalafil 5 mg daily, cilnidipine 10 mg plus 5 mg of tadalafil, or cilnidipine 20 mg plus 5 mg of tadalafil.

[1] = Pooled Cilnidipine 20 mg and Cilnidipine 20 mg + Tadalafil 5 mg, n 4, Excluding Outliers, ITT Part A
[2] = Pooled Cilnidipine (N = 3), ITT Part A
[3] = Pooled Cilnidipine, n 3, Excluding Outliers, ITT Part A
[4] = Pooled Cilnidipine, n 3, by Baseline RCS, 1st block (RCS <5.0), ITT Part A
[5] = all cilnidipine and cilnidipine plus tadalafil treated patients (n=7)
[6] = excluding outliers, by baseline RCS, first subgroup, cilnidipine 10 mg, tadalafil 5 mg daily
[7] = excluding outliers, by baseline RCS, first subgroup, cilnidipine 20 mg, tadalafil 5 mg daily
[8] = excluding outliers, by baseline RCS, first subgroup, pooled cilnidipine 10 mg and 20 mg, tadalafil 5 mg daily

SMILES: COCCOC(=O)C1=C(C)NC(C)=C(C(=O)OC/C=C/c2ccccc2)C1c1cccc([N+](=O)[O-])c1 (centres unmarked) [Cilnidipine, cilnidipine]
- Weekly Symptomatic RP Attacks Change from Baseline, Median [1]: −3.50
- Weekly Symptomatic RP Attacks Percent Change from Baseline, Mean (SD) [1]: −25.00 (14.410) %
- Weekly Symptomatic RP Attacks Percent Change from Baseline, Median [1]: −28.17%
- Weekly Symptomatic RP Attacks, Mean (SD) [1]: 9.75 (3.403)
- Weekly Symptomatic RP Attacks, Median [1]: 10.50
- Weekly Symptomatic RP Attacks Change from Baseline, Mean [2]: −5.33
- Weekly Symptomatic RP Attacks Change from Baseline, Median [2]: −7.00
- Weekly Symptomatic RP Attacks Percent Change from Baseline, Mean [2]: −33.60%
- Weekly Symptomatic RP Attacks Percent Change from Baseline, Median [2]: −33.33%
- Weekly Symptomatic RP Attacks, Mean [2]: 10.00
- Weekly Symptomatic RP Attacks, Median [2]: 11.00
- Weekly Symptomatic RP Attacks Change from Baseline, Mean (SD) [3]: −5.33 (2.887)
- Weekly Symptomatic RP Attacks Change from Baseline, Median [3]: −7.00
- Weekly Symptomatic RP Attacks Percent Change from Baseline, Mean (SD) [3]: −33.60 (5.164) %
- Weekly Symptomatic RP Attacks Percent Change from Baseline, Median [3]: −33.33%
- Weekly Symptomatic RP Attacks, Mean (SD) [3]: 10.00 (4.583)
- Weekly Symptomatic RP Attacks, Median [3]: 11.00
- Weekly Symptomatic RP Attacks Change from Baseline, Mean (SD) [4]: −5.33 (2.887)
- Weekly Symptomatic RP Attacks Change from Baseline, Median [4]: −7.00
- Weekly Symptomatic RP Attacks Percent Change from Baseline, Mean (SD) [4]: −33.60 (5.164) %
- Weekly Symptomatic RP Attacks Percent Change from Baseline, Median [4]: −33.33%
- Weekly Symptomatic RP Attacks, Mean (SD) [4]: 10.00 (4.583)
- Weekly Symptomatic RP Attacks, Median [4]: 11.00
- patients in whom the average frequency of Raynaud's attacks decreased more than 25% [5]: 6 of 7
- weekly frequency of Raynaud attacks, direction of change [5]: decrease
- reduction in the weekly frequency of attacks, range (baseline RCS <5.0, all cilnidipine and cilnidipine plus tadalafil treated patients (n=5)): 28%-44%
- Weekly Symptomatic RP Attacks Change from Baseline, Max [6]: −7.0, −7.0
- Weekly Symptomatic RP Attacks Change from Baseline, Mean (SD) [6]: −7.00
- Weekly Symptomatic RP Attacks Change from Baseline, Median [6]: −7.00
- Weekly Symptomatic RP Attacks Change from Baseline, Min [6]: −7.0, −7.0
- Weekly Symptomatic RP Attacks Change from Baseline, Q1 [6]: −7.00, −7.00
- Weekly Symptomatic RP Attacks Change from Baseline, Q3 [6]: −7.00, −7.00
- Weekly Symptomatic RP Attacks Percent Change from Baseline, Max [6]: −33.3, −33.3%
- Weekly Symptomatic RP Attacks Percent Change from Baseline, Mean (SD) [6]: −33.33%
- Weekly Symptomatic RP Attacks Percent Change from Baseline, Median [6]: −33.33%
- Weekly Symptomatic RP Attacks Percent Change from Baseline, Min [6]: −33.3, −33.3%
- Weekly Symptomatic RP Attacks Percent Change from Baseline, Q1 [6]: −33.33, −33.33%
- Weekly Symptomatic RP Attacks Percent Change from Baseline, Q3 [6]: −33.33, −33.33%
- Weekly Symptomatic RP Attacks, Max [6]: 14.0, 14.0
- Weekly Symptomatic RP Attacks, Mean (SD) [6]: 14.00
- Weekly Symptomatic RP Attacks, Median [6]: 14.00
- Weekly Symptomatic RP Attacks, Min [6]: 14.0, 14.0
- Weekly Symptomatic RP Attacks, Q1 [6]: 14.00, 14.00
- Weekly Symptomatic RP Attacks, Q3 [6]: 14.00, 14.00
- Weekly Symptomatic RP Attacks Change from Baseline, Max [7]: −2.0
- Weekly Symptomatic RP Attacks Change from Baseline, Mean (SD) [7]: −4.50 (3.536)
- Weekly Symptomatic RP Attacks Change from Baseline, Median [7]: −4.50
- Weekly Symptomatic RP Attacks Change from Baseline, Min [7]: −7.0
- Weekly Symptomatic RP Attacks Change from Baseline, Q1 [7]: −7.00
- Weekly Symptomatic RP Attacks Change from Baseline, Q3 [7]: −2.00
- Weekly Symptomatic RP Attacks Percent Change from Baseline, Max [7]: −28.6%
- Weekly Symptomatic RP Attacks Percent Change from Baseline, Mean (SD) [7]: −33.73 (7.296) Percent
- Weekly Symptomatic RP Attacks Percent Change from Baseline, Median [7]: −33.73%
- Weekly Symptomatic RP Attacks Percent Change from Baseline, Min [7]: −38.9%
- Weekly Symptomatic RP Attacks Percent Change from Baseline, Q1 [7]: −38.89%
- Weekly Symptomatic RP Attacks Percent Change from Baseline, Q3 [7]: −28.57%
- Weekly Symptomatic RP Attacks, Max [7]: 11.0
- Weekly Symptomatic RP Attacks, Mean (SD) [7]: 8.00 (4.243)
- Weekly Symptomatic RP Attacks, Median [7]: 8.00
- Weekly Symptomatic RP Attacks, Min [7]: 5.0
- Weekly Symptomatic RP Attacks, Q1 [7]: 5.00
- Weekly Symptomatic RP Attacks, Q3 [7]: 11.00
- Weekly Symptomatic RP Attacks Change from Baseline, Max [8]: −2.0
- Weekly Symptomatic RP Attacks Change from Baseline, Mean (SD) [8]: −5.33 (2.887)
- Weekly Symptomatic RP Attacks Change from Baseline, Median [8]: −7.00
- Weekly Symptomatic RP Attacks Change from Baseline, Min [8]: −7.0
- Weekly Symptomatic RP Attacks Change from Baseline, Q1 [8]: −7.00
- Weekly Symptomatic RP Attacks Change from Baseline, Q3 [8]: −2.00
- Weekly Symptomatic RP Attacks Percent Change from Baseline, Max [8]: −28.6%
- Weekly Symptomatic RP Attacks Percent Change from Baseline, Mean (SD) [8]: −33.60 (5.164) Percent
- Weekly Symptomatic RP Attacks Percent Change from Baseline, Median [8]: −33.33%
- Weekly Symptomatic RP Attacks Percent Change from Baseline, Min [8]: −38.9%
- Weekly Symptomatic RP Attacks Percent Change from Baseline, Q1 [8]: −38.89%
- Weekly Symptomatic RP Attacks Percent Change from Baseline, Q3 [8]: −28.57%
- Weekly Symptomatic RP Attacks, Max [8]: 14.0
- Weekly Symptomatic RP Attacks, Mean (SD) [8]: 10.00 (4.583)
- Weekly Symptomatic RP Attacks, Median [8]: 11.00
- Weekly Symptomatic RP Attacks, Min [8]: 5.0
- Weekly Symptomatic RP Attacks, Q1 [8]: 5.00
- Weekly Symptomatic RP Attacks, Q3 [8]: 14.00
